In ChEMBL document CHEMBL3885861, “Open TG-GATES”:

Organism: Rattus norvegicus
Experiment: Open TG-GATES - Regimen: Single
Format: toxicity, organism-based, Sprague-Dawley
Set-up: regimen Single, gender Male, age 6 weeks
Settings: in vivo, po, 0 mg/kg, route gavage, dose level Control; for APTT / Bas / Eos / Fbg / Hb / Ht / Lym / MCH / MCHC / MCV / Mono / Neu / PT / Plat / RBC / Ret / WBC: tissue Blood; for KIDNEY_L / KIDNEY_R / KIDNEY_TOTAL: tissue Kidney; for LIVER: tissue Liver; for A/G / ALP / ALT / AST / BUN / CRE / Ca / Cl / DBIL / GLC / IP / K / LDH / Na / PL / RALB / TBIL / TC / TG / TP / gamma-GTP: tissue Plasma

CCN(CC)N=O [N-NITROSODIETHYLAMINE]
TERMINAL_BW (3 h): 221 g | APTT (3 h): 19.6 s | Bas (3 h): 0.4% | Eos (3 h): 1% | Fbg (3 h): 223 mg/dL | Hb (3 h): 13.7 g/dL | Ht (3 h): 40% | Lym (3 h): 77.8% | MCH (3 h): 21.5 pg | MCHC (3 h): 34.1% | MCV (3 h): 63 fL | Mono (3 h): 2.2% | Neu (3 h): 18% | PT (3 h): 12 s | Plat (3 h): 127.6 x10_4/uL | RBC (3 h): 635.6 x10_4/ul | Ret (3 h): 7.2% | WBC (3 h): 66.1 x10_2/uL | KIDNEY_L (3 h): 1 g | KIDNEY_R (3 h): 0.9 g | KIDNEY_TOTAL (3 h): 1.9 g | LIVER (3 h): 9.5 g | A/G (3 h): 1.6 | ALP (3 h): 1051 IU/L | ALT (3 h): 37.4 IU/L | AST (3 h): 68.4 IU/L | BUN (3 h): 10 mg/dL | CRE (3 h): 0.4 mg/dL | Ca (3 h): 10.3 mg/dL | Cl (3 h): 102 meq/L | DBIL (3 h): 0.07 mg/dL | GLC (3 h): 194.2 mg/dL | IP (3 h): 9 mg/dL | K (3 h): 3.5 meq/L | LDH (3 h): 169.8 IU/L | Na (3 h): 140.8 meq/L | PL (3 h): 132.8 mg/dL | RALB (3 h): 3.4 g/dL | TBIL (3 h): 0.1 mg/dL | TC (3 h): 79.4 mg/dL | TG (3 h): 42.4 mg/dL | TP (3 h): 5.5 g/dL | gamma-GTP (3 h): 1 IU/L | TERMINAL_BW (6 h): 223.5 g | APTT (6 h): 20.6 s | Bas (6 h): 0.2% | Eos (6 h): 1% | Fbg (6 h): 218 mg/dL | Hb (6 h): 13.5 g/dL | Ht (6 h): 39.5% | Lym (6 h): 79.6% | MCH (6 h): 21.4 pg | MCHC (6 h): 34.3% | MCV (6 h): 62.5 fL | Mono (6 h): 2.4% | Neu (6 h): 16% | PT (6 h): 12 s | Plat (6 h): 130.4 x10_4/uL | RBC (6 h): 631.8 x10_4/ul | Ret (6 h): 6.9% | WBC (6 h): 81.9 x10_2/uL | KIDNEY_L (6 h): 1 g | KIDNEY_R (6 h): 1 g | KIDNEY_TOTAL (6 h): 2 g | LIVER (6 h): 9.9 g | A/G (6 h): 1.6 | ALP (6 h): 946.2 IU/L | ALT (6 h): 34.2 IU/L | AST (6 h): 72.4 IU/L | BUN (6 h): 13.6 mg/dL | CRE (6 h): 0.4 mg/dL | Ca (6 h): 10.3 mg/dL | Cl (6 h): 102.8 meq/L | DBIL (6 h): 0.076 mg/dL | GLC (6 h): 201.2 mg/dL | IP (6 h): 7.8 mg/dL | K (6 h): 3.6 meq/L | LDH (6 h): 193 IU/L | Na (6 h): 140.8 meq/L | PL (6 h): 141.6 mg/dL | RALB (6 h): 3.4 g/dL | TBIL (6 h): 0.1 mg/dL | TC (6 h): 82.2 mg/dL | TG (6 h): 54.4 mg/dL | TP (6 h): 5.5 g/dL | gamma-GTP (6 h): 1.4 IU/L
